In patent US20230203043A1, “NOVEL IMIDAZOPYRAZINE DERIVATIVES” (Hoffmann-La Roche Inc., priority 2020, published 2023):
Counter-ions that a name gives are not always drawn.

These molecules were tested on Acinetobacter baumannii ATCC17961 (assay: Antimicrobial susceptibility testing: 90% growth inhibitory concentration (IC90) determination in Iso-Sensitest broth, OD600 growth). Details: Acinetobacter baumannii, ATCC17961, 16 h, read-out: A. baumannii ATCC 17961 IC90 (uM), strain ATCC 17961, OD600 growth over 16 h.
Assay type: cell-based
Procedure, shortened: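 Growth inhibition is calculated during the logarithmic phase from OD600 readings taken every 20 minutes across 16 h at 35±2° C. Bacteria at ~5×10^(5) CFU/ml face twofold dilution series (e.g. 50 to 0.097 μM final).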

Row | SMILES | IC90 [µM]
1 | Cc1cc(Nc2nccn3c(-c4c[nH]nc4C(F)(F)F)cnc23)ccc1C(=O)N1CCN(C(=O)N[C@@H]2CCNC2)CC1 [Example 416, formic acid; 4-[2-methyl-4-[[3-[3-(trifluoromethyl)-1H-pyrazol-4-yl]imidazo[1,2-a]pyrazin-8-yl]amino]benzoyl]-N-[(3R)-pyrrolidin-3-yl]piperazine-1-carboxamide] | 0.441
2 | Cc1cc(Nc2nccn3c(-c4c[nH]nc4C(F)(F)F)cnc23)ccc1C(=O)N1CCN(C(=O)NCCCN)CC1 [Example 417, N-(3-aminopropyl)-4-[2-methyl-4-[[3-[3-(trifluoromethyl)-1H-pyrazol-4-yl]imidazo[1,2-a]pyrazin-8-yl]amino]benzoyl]piperazine-1-carboxamide formate] | 0.506
3 | Cc1cc(Nc2nccn3c(-c4c[nH]nc4C(F)(F)F)cnc23)ccc1C(=O)N1CCN(C(=O)CCN)CC1 [Example 418, 3-amino-1-[4-[2-methyl-4-[[3-[3-(trifluoromethyl)-1H-pyrazol-4-yl]imidazo[1,2-a]pyrazin-8-yl]amino]benzoyl]piperazin-1-yl]propan-1-one formate] | 0.583
4 | Cc1cc(Nc2nccn3c(-c4cn(CC#N)nc4C(F)(F)F)cnc23)ccc1C(=O)N1CCN(C(=O)N[C@@H]2CNC[C@H]2O)CC1 [Example 419, 4-[4-[[3-[1-(cyanomethyl)-3-(trifluoromethyl)pyrazol-4-yl]imidazo[1,2-a]pyrazin-8-yl]amino]-2-methylbenzoyl]-N-[(3R,4R)-4-hydroxypyrrolidin-3-yl]piperazine-1-carboxamide formate] | 0.654
5 | Cc1cc(Nc2nccn3c(-c4cn(CC#N)nc4C(F)(F)F)cnc23)ccc1C(=O)N1CCN(C(=O)[C@@H]2CCNC[C@@H]2O)CC1 [Example 421, formic acid; 2-[4-[8-[4-[4-[(3R,4R)-3-hydroxypiperidine-4-carbonyl]piperazine-1-carbonyl]-3-methylanilino]imidazo[1,2-a]pyrazin-3-yl]-3-(trifluoromethyl)pyrazol-1-yl]acetonitrile] | 0.629
6 | Cc1cc(Nc2nccn3c(-c4cn(CC#N)nc4C(F)(F)F)cnc23)ccc1C(=O)N1CCN(C(=O)[C@@H]2C[C@@H](O)CN2)CC1 [Example 422, formic acid; 2-[4-[8-[4-[4-[(2S,4R)-4-hydroxypyrrolidine-2-carbonyl]piperazine-1-carbonyl]-3-methylanilino]imidazo[1,2-a]pyrazin-3-yl]-3-(trifluoromethyl)pyrazol-1-yl]acetonitrile] | 0.63
7 | Cc1cc(Nc2nccn3c(-c4cn(CC#N)nc4C(F)(F)F)cnc23)ccc1C(=O)N1CCN(C(=O)[C@@H]2C[C@](C)(O)CN2)CC1 [Example 424, formic acid; 2-[4-[8-[4-[4-[(2S,4S)-4-hydroxy-4-methylpyrrolidine-2-carbonyl]piperazine-1-carbonyl]-3-methylanilino]imidazo[1,2-a]pyrazin-3-yl]-3-(trifluoromethyl)pyrazol-1-yl]acetonitrile] | 0.685
8 | Cc1cc(Nc2nccn3c(-c4cn(CC#N)nc4C(F)(F)F)cnc23)ccc1C(=O)N1CCN(C(=O)C2(O)CCNCC2)CC1 [Example 425, formic acid; 2-[4-[8-[4-[4-(4-hydroxypiperidine-4-carbonyl]piperazine-1-carbonyl]-3-methylanilino]imidazo[1,2-a]pyrazin-3-yl]-3-(trifluoromethyl)pyrazol-1-yl]acetonitrile] | 0.691
9 | Cc1cc(Nc2nccn3c(-c4cn(CC#N)nc4C(F)(F)F)cnc23)ccc1C(=O)N1CCN(C(=O)[C@H]2C[C@H](O)CN2)CC1 [Example 426, formic acid; 2-[4-[8-[4-[4-[(2R,4S)-4-hydroxypyrrolidine-2-carbonyl]piperazine-1-carbonyl]-3-methylanilino]imidazo[1,2-a]pyrazin-3-yl]-3-(trifluoromethyl)pyrazol-1-yl]acetonitrile] | 0.948
10 | Cc1cc(Nc2nccn3c(-c4c[nH]nc4C(F)(F)F)cnc23)ccc1C(=O)N1CCN(C(=O)NCCN)CC1 [Example 428, N-(2-aminoethyl)-4-[2-methyl-4-[[3-[3-(trifluoromethyl)-1H-pyrazol-4-yl]imidazo[1,2-a]pyrazin-8-yl]amino]benzoyl]piperazine-1-carboxamide formate] | 0.465
11 | O=C(NCCCNC(=O)[C@@H]1C[C@@H](O)CN1)c1ccc(Nc2nccn3c(-c4c[nH]nc4C(F)(F)F)cnc23)cc1Cl [Example 429, (2S,4R)-N-[3-[[2-chloro-4-[[3-[3-(trifluoromethyl)-1H-pyrazol-4-yl]imidazo[1,2-a]pyrazin-8-yl]amino]benzoyl]amino]propyl]-4-hydroxypyrrolidine-2-carboxamide formate] | 1.07
12 | CCc1cc(Nc2nccn3c(-c4c[nH]nc4C(F)(F)F)cnc23)ccc1C(=O)NCCNC(=O)[C@@H]1C[C@@H](O)CN1 [Example 432, (2S,4R)-N-[2-[[2-ethyl-4-[[3-[3-(trifluoromethyl)-1H-pyrazol-4-yl]imidazo[1,2-a]pyrazin-8-yl]amino]benzoyl]amino]ethyl]-4-hydroxypyrrolidine-2-carboxamide formate] | 0.751
13 | O=C(NCCNC(=O)[C@@H]1C[C@@H](O)CN1)c1ccc(Nc2nccn3c(-c4c[nH]nc4C(F)(F)F)cnc23)cc1Cl [Example 433, (2S,4R)-N-[2-[[2-chloro-4-[[3-[3-(trifluoromethyl)-1H-pyrazol-4-yl]imidazo[1,2-a]pyrazin-8-yl]amino]benzoyl]amino]ethyl]-4-hydroxypyrrolidine-2-carboxamide formate] | 2.66

Same assay, conditions: Acinetobacter baumannii, ATCC17961, 16 h, strain ATCC 17961, OD600 growth over 16 h, read-out: A. baumannii ATCC 17961 IC90

Row | IC90 [µM] | SMILES
14 | 1.42 | Cc1cc(Nc2nccn3c(-c4c[nH]nc4C(F)(F)F)cnc23)ccc1C(=O)N1CCN(C(=O)NCC2CNC2)CC1 [Example 410, N-(azetidin-3-ylmethyl)-4-[2-methyl-4-[[3-[3-(trifluoromethyl)-1H-pyrazol-4-yl]imidazo[1,2-a]pyrazin-8-yl]amino]benzoyl]piperazine-1-carboxamide]
15 | 2.2 | O=C(NC1CCNCC1)c1ccc(Nc2nccn3c(-c4c[nH]nc4C(F)(F)F)cnc23)cc1Cl [Example 413, 2-chloro-N-piperidin-4-yl-4-[[3-[3-(trifluoromethyl)-1H-pyrazol-4-yl]imidazo[1,2-a]pyrazin-8-yl]amino]benzamide]
16 | 4.04 | O=C(NC1CCCNC1)c1ccc(Nc2nccn3c(-c4c[nH]nc4C(F)(F)F)cnc23)cc1Cl (stereo not shown) [Example 414, 2-chloro-N-piperidin-3-yl-4-[[3-[3-(trifluoromethyl)-1H-pyrazol-4-yl]imidazo[1,2-a]pyrazin-8-yl]amino]benzamide]
17 | 0.746 | Cc1cc(Nc2nccn3c(-c4c[nH]nc4C(F)(F)F)cnc23)ccc1C(=O)N1CCN(C(=O)CCCN)CC1 [Example 420, 4-amino-1-[4-[2-methyl-4-[[3-[3-(trifluoromethyl)-1H-pyrazol-4-yl]imidazo[1,2-a]pyrazin-8-yl]amino]benzoyl]piperazin-1-yl]butan-1-one]
18 | 2.14 | CCc1cc(Nc2nccn3c(-c4c[nH]nc4C(F)F)cnc23)ccc1C(=O)NCCOCCN [Example 430, N-[2-(2-aminoethoxy)ethyl]-4-[[3-[3-(difluoromethyl)-1H-pyrazol-4-yl]imidazo[1,2-a]pyrazin-8-yl]amino]-2-ethylbenzamide]
19 | 0.449 | O=C(c1ccc(Nc2nccn3c(-c4c[nH]nc4C(F)(F)F)cnc23)cc1Cl)N1CCNCC1 [Example 431, [2-chloro-4-[[3-[3-(trifluoromethyl)-1H-pyrazol-4-yl]imidazo[1,2-a]pyrazin-8-yl]amino]phenyl]-piperazin-1-ylmethanone]
